Measured values taken from article PMC8507260, “A2E-induced inflammation and angiogenesis in RPE cells in vitro are modulated by PPAR-α, -β/δ, -γ, and RXR antagonists and by norbixin” (Aging (Albany NY), 2021).
Entries after “also recorded” stand apart in the source; their conditions may differ. Where two headings read alike, the source gives them in different places.

Tests used:
[1] = molecular target: T1, PPAR-α (Homo sapiens, UniProt Q07869); assay: Competition binding to PPAR-α against [3H]GW7647 (Eurofins Cerep); conditions: competition with [3H]GW7647
T1 construct: Eurofins Cerep (contract laboratory that ran the assay)
T1 sequence (Q07869 1-468): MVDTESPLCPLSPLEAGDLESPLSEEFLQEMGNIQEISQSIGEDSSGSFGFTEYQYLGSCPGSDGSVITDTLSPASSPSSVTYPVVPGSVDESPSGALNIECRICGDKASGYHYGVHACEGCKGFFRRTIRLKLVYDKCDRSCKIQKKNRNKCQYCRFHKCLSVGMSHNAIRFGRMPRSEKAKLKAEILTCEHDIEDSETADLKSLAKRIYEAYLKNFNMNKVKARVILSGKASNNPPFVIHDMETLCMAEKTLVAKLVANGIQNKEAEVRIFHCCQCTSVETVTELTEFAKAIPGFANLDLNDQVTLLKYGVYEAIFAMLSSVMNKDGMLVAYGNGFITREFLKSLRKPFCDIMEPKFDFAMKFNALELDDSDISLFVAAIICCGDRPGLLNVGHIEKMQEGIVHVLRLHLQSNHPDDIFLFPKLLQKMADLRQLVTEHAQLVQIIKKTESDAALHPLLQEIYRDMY
Source text: The binding and activity of norbixin on PPARs remains controversial, thus, firstly, we performed competition experiments in vitro between norbixin and [^3H] GW7647, an agonist of PPAR-α, and [^3H] rosiglitazone, an agonist of PPAR-γ. […] Secondly, we tested whether norbixin could induce the transactivation of PPAR-α, -β/δ or -γ in the context of RPE cells in vitro by co-transfecting porcine RPE cells with a plasmid expressing each of the full-length PPAR isoforms and a plasmid expressing luciferase under the control of the PPAR response element. […] Then, we wanted to determine if norbixin could modulate the transactivation of PPAR isoforms induced by specific agonists.
Binding studies of A2E and norbixin to RXR-α and PPAR-α and γ were performed in vitro by an external laboratory (Eurofins Cerep, Celle L’Evescault, France) through competition experiments between A2E or norbixin and [^3H]9-cis-retinoic acid as the natural ligand of RXR-α, [^3H]GW7647 an agonist of PPAR-α and [^3H]Rosiglitazone an agonist of PPAR-γ.

[2] = tested on: RXR; assay: Endogenous RXR transactivation, luciferase reporter in porcine RPE cells; assay type: cell-based
Description: Pig eyes were obtained from a local slaughterhouse and transported to the laboratory in ice-cold Ringer solution. After removal of the anterior segment of the eye, the vitreous and neural retina was separated from the RPE and removed. The eyecup was washed twice with phosphate buffer saline (PBS), filled with trypsin (0.25% in PBS) and incubated at 37°C for 1.5 h. RPE cells were harvested by gently pipetting, centrifuged to remove trypsin and re-suspended in Dulbecco’s Modified Eagle Medium (DMEM) supplemented with 20% (v/v) foetal-calf serum (DMEM20%FCS) and 0.1% gentamycin. Cells were seeded into 60 mm diameter Petri dishes, cultured in an atmosphere of 5% CO2/95% air at 37°C, and supplied with fresh medium after 24 hours and 4 days in vitro. For experiments aimed at measuring mRNA or protein expression in RPE, cells were trypsinized after one week in culture and transferred to 24-well or 6-well plates at a density of 1.5 × 10^5 cells/cm^2 in DMEM2%FCS. Norbixin or agonists were added to the medium 24 h after seeding, and antagonists were added to the medium 24 h later. A2E treatment was performed during 19 h before cellular sample preparation. All the drugs used in these experiments were prepared as stock solutions in DMSO.
After one week in culture, cells were trypsinized and transferred to a 96-well plate at a density of 6 × 10^4 cells/cm^2 in DMEM2%FCS. The next day, cells were transfected using the Cignal Reporter Assay Kits for PPAR, RXR, AP-1 and NF-κB, according to the manufacturer’s specifications. To measure the specific activation of PPAR isoforms, cells were also co-transfected with PPAR-α, PPAR-β/δ or PPAR-γ expression vectors. Transfection was performed with Lipofectamine and Plus Reagent in serum-free medium. 3 h after the transfection, the medium was replaced and treatments with the molecules to assay were performed. Luciferase activity was measured the next day using the Dual-Luciferase Reporter Assay System. The measurements were performed with a luminometer (Infinite M1000 from Tecan, Mannedorf, Switzerland). Firefly: Renilla activity ratios were calculated for each condition and ratios from transcription factor-responsive reporter transfections were divided by ratios from negative control transfections to obtain relative luciferase unit, as described by the manufacturer. At least 3 independent transfections were performed in triplicate for each condition.

[3] = molecular target: T2, PPAR-γ (Homo sapiens, UniProt P37231); parameters: Eurofins Cerep (contract laboratory that ran the assay); method as in PMID 19891958; conditions: cited from earlier work
T2 sequence (P37231 1-505): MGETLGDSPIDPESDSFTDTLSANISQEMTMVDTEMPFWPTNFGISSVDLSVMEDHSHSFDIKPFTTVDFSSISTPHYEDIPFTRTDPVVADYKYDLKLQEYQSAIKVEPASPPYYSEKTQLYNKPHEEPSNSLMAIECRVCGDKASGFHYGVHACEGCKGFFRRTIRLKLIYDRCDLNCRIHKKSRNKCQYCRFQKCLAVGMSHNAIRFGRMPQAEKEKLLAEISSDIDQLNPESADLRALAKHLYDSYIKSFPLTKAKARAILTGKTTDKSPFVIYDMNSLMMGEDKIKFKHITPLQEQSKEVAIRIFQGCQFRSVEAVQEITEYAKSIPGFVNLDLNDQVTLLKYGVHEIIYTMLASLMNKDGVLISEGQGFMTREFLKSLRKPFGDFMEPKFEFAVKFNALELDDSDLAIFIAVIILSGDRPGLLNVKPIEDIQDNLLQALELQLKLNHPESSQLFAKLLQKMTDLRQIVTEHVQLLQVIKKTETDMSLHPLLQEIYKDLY

[4] = tested on: RPE cells; assay: Cell viability of RPE cells in culture without blue light; assay type: cell-based, porcine; conditions: cell culture conditions for cytokine dosage, absence of blue light exposure

Row | SMILES | IC50 [1] [µM] | Kd [1] [µM] | inhibition of RXR transactivation induced by A2E ([2]; A2E 20 μM, NBX 20 μM, HX531 5 μM) [%] | inhibition of RXR transactivation induced by HX630 ([2]; HX630 5 μM, NBX 20 μM) | transactivation of RXRs by the compound alone ([2]; HX630 5 μM, NBX 20 μM, vs DMSO control) | PPAR-γ transactivation in 3T3-L1 adipocytes ([3]; norbixin at 20 μM) | PPAR-γ transactivation in 3T3-L1 adipocytes ([3]; norbixin at 70 μM) | minimal concentration inducing transactivation of endogenous RXRs ([2]; dose-response, porcine RPE cells) [µM] | cell viability [4]
1 | CC(/C=C/C=C(C)/C=C/C(=O)O)=C\C=C\C=C(C)\C=C\C=C(C)\C=C\C(=O)O (stereo in doubt) [norbixin, 9’-cis-norbixin] | 16.5 | 15 | 49 | did not inhibit | did not induce the transactivation | does not induce; also recorded: did not induce | induces a limited transactivation |  | 
2 | CC(C=CC1=C(C)CCCC1(C)C)=CC=CC(C)=Cc1cc(C=CC=C(C)C=CC2=C(C)CCCC2(C)C)cc[n+]1CCO [A2E, N-retinylidene-N-retinylethanolamine] | 42.7 | 41 |  |  |  |  |  | 20 | not diminished
